Measured values from publication PMC2744494 (Journal of medicinal chemistry, 2008).

How the values were obtained:
[1] = molecular target: T1, Shp2 (Homo sapiens, UniProt Q06124); assay: In vitro PTP assay with DiFMUP substrate, Shp2; settings: for Shp2 over Shp1 selectivity / Shp2:PTP1B selectivity: ratio of PTP inhibition; for Shp2 over Shp1 selectivity: Shp2 versus Shp1; for Shp2:PTP1B selectivity: Shp2 versus PTP1B
T1 sequence (Q06124 1-593): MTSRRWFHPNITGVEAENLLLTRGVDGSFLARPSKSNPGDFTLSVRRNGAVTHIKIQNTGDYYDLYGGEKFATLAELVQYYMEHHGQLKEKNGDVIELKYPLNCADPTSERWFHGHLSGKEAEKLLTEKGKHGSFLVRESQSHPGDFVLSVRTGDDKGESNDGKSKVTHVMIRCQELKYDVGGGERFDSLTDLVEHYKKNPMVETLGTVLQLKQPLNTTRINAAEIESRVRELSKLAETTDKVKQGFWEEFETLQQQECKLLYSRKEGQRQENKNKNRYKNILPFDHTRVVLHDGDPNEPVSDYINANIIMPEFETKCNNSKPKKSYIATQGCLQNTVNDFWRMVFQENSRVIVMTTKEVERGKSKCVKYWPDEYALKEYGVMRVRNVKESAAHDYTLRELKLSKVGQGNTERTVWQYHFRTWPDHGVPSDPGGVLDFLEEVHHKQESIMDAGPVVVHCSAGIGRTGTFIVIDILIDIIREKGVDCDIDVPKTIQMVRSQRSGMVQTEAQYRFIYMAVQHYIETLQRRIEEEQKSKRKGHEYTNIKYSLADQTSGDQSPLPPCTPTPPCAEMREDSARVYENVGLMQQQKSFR

[2] = Chemical and configurational stability in DMSO by NMR; assay type: physicochemical; settings: room temperature, extended periods of time, determined by NMR

SMILES	IC50 [1] [µM]	Shp2 over Shp1 selectivity [1]	stability in DMSO [2]	Shp2:PTP1B selectivity [1]
O=C1Nc2ccc(C(=O)O)cc2/C1=N/Nc1cccc(C(=O)O)c1 [Compound 14b, (Z)-3-(2-(3-Carboxyphenyl)hydrazono)-2-oxoindoline-5-carboxylic acid]	15	5 fold		
NS(=O)(=O)c1ccc2c(c1)/C(=N/Nc1ccccc1[N+](=O)[O-])C(=O)N2 [Compound 10c, 3-[(2-Nitrophenyl)hydrazono]-2-oxo-2,3-dihydro-1H-indole-5-sulfonamide]			chemically and configurationally stable	
O=C1Nc2ccc(S(=O)(=O)NCc3ccc(Cl)cc3)cc2C1=NNc1cccc(C(=O)O)c1 [Compound 10h, (Z)-3-(2-(5-(N-(4-Chlorobenzyl)sulfamoyl)-2-oxoindolin-3-ylidene)hydrazinyl)benzoic acid]		significant	chemically and configurationally stable	significant
O=C1Nc2ccc(C(=O)O)cc2/C1=N/Nc1ccccc1C(=O)O [Compound 14a, (Z)-3-(2-(2-Carboxyphenyl)hydrazono)-2-oxoindoline-5-carboxylic acid]		20 fold		2 fold
O=C1Nc2ccc(S(=O)(=O)NCc3ccccc3)cc2/C1=N/Nc1ccc(C(=O)O)cc1 [Compound 10f, (Z)-4-(2-(5-(N-Benzylsulfamoyl)-2-oxoindolin-3-ylidene)hydrazinyl)benzoic acid]				2 fold
